PMC11593623, “D299T Mutation in CYP76F14 Led to a Decrease in Wine Bouquet Precursor Production in Wine Grape” (Genes, 2024)

Target: T1, 'L35' VvCYP76F14 (Vitis vinifera, UniProt A0A1B2ZBX8, S46N/I107T/K111N/Q175R/V222L/N286S/T325K/G378E/A380T/D383E/A386T)
T1 construct: 499-residue CDS, synthesized (GenScript), E. coli BL21(DE3); purification and tags not described; Arabidopsis CPR ATR1 as redox partner
Assay: substrate remnant by UPLC-MS
Type: cell-based
Conditions: Arabidopsis CPR ATR1 as redox partner; 26 °C, 1 h; recombinant E. coli protein, purification not described

T1 sequence (A0A1B2ZBX8 entry or part of it with the stated changes): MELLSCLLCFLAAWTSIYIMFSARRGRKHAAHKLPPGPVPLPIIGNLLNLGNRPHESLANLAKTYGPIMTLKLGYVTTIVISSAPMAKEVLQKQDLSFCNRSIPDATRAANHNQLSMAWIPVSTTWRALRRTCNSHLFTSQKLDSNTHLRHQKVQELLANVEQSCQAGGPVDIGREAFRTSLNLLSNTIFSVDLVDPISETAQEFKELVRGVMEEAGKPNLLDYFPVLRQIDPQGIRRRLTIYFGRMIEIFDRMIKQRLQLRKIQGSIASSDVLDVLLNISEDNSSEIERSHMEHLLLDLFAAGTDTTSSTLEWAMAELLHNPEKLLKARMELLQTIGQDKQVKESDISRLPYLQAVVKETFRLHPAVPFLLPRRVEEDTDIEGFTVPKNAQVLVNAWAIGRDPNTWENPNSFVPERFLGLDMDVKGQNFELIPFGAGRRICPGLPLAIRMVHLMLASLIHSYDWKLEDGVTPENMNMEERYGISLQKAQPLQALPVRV

| SMILES | substrate remnant by UPLC-MS |
| --- | --- |
| C=CC(C)(O)CC/C=C(\C)CO (centres unmarked) [(E)-8-hydroxylinalool] | ‘L35’ VvCYP76F14 exhibited lower remnants of linalool and (E)-8-hydroxylinalool substrates |
| C=CC(C)(O)CCC=C(C)C (centres unmarked) [linalool] | ‘L35’ VvCYP76F14 exhibited lower remnants of linalool and (E)-8-hydroxylinalool substrates |
